The text below walks through data of patent publication US9981972B2, “N-hydroxy bicyclic hydantoin carbamates as tools for identification of serine hydrolase targets” (ABIDE THERAPEUTICS, INC., priority 2014, dated 2018).

The test system of test [1] is LYPLA1/2. In words: Inhibition by gel-based competitive ABPP in vivo (FP-Rh probe). The arrangement: species or system mouse. Here is the method: In this assay, test compounds were administered to mice. Mice were sacrificed, and their tissues harvested, homogenized, and the soluble fractions isolated, reacted with FP-Rh, and separated by SDS-PAGE as described above.
Protocol Summary: Purpose-bred 3-4 month old male C57BL6 laboratory mice were i.p. administered test compound (0.5-50 mg/kg in 18:1:1 saline:PEG-40-castor oil:EtOH vehicle solution, 10 μL/g mouse weight) or vehicle only. After 4 hours, mice were humanely sacrificed (anesthetized with isoflurane followed by cervical dislocation), and tissues (liver, kidney, brain) removed and snap frozen in liquid nitrogen before processing. Tissues were homogenized, and soluble proteome isolated by ultracentrifugation (100 k×g, 45 minutes) and protein concentration adjusted to 1 mg/mL in DPBS. An aliquot (50 μL) was reacted with FP-Rh (2 μM final concentration) for 30 minutes at 25° C. Reactions were quenched with 16 μL 4×SDS-PAGE loading buffer (reducing), separated by SDS-PAGE, and visualized by in-gel fluorescent scanning. The percentage activity remaining was determined by measuring the integrated optical density of test compound bands relative to vehicle bands. Note: Due to the overlapping nature of LYPLA1 and LYPLA2 bands, the proteins were quantified together.
The in vivo inhibitory activity of Compound 1 was assessed. For this experiment, mice were administered test compound (0.5-50 mg/kg, i.p.) or vehicle only. After four hours mice were sacrificed and their tissues removed, homogenized, and the soluble fractions isolated and labeled with FP-Rh followed by SDS-PAGE and fluorescent detection of FP-labeled SHs (see FIG. 3B).
Compound 26, Compound 34, and Compound 1 were administered across a dose range of 1-40 mg/kg to C57BL6 mice by intraperitoneal injection, and, after 4 hours, animals were sacrificed and tissues harvested for analysis by gel-based ABPP using the FP-Rh probe and the Compound 39 probe.

Test [2] has as its target T1, PPT1 (Homo sapiens, UniProt P50897).
T1 sequence (P50897 28-306): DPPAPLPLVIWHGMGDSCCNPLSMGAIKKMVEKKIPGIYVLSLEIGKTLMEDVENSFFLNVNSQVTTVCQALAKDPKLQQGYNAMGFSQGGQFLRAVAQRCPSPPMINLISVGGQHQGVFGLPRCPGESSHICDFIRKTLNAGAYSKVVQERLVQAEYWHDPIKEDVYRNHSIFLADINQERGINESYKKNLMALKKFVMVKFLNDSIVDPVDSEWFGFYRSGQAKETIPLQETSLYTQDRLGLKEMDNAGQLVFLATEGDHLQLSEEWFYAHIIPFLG
In words: ABPP-SILAC, PC3 cells treated in situ, Compound 39 probe. Format: cell-based. The arrangement: endogenous in cells; host or cells: PC3. The note with it: 4 h in situ. Here is the method: (§1) In situ inhibitor treatments of human cell lines were performed as described previously (Hsu et al., J Med Chem 56, 8270-8279, 2012). Briefly, PC3 or transfected HEK293T cells were grown to confluency in serum-containing media (RPMI or DMEM, respectively). The culture media was then removed and replaced with fresh media containing DMSO or inhibitor at the desired concentration and incubated for 4 hours in a tissue culture incubator (37° C., 5% CO2). Cells were then washed with PBS, harvested, washed with PBS once more, and lysed with a probe sonicator.
Isotopically heavy- and light-labeled PC3 cells were treated with Compound 37 (1 μM) or DMSO for 4 h, respectively, lysed, and then treated Compound 39 (5 μM, 1 h). […] Accordingly, PPT1 was not detected in our previous ABPP-SILAC studies with FP-biotin (see FIG. 9). […]
To evaluate the broader selectivity of Compound 26 and Compound 34 across the SH class, heavy and light isotopically-labeled PC3 cells were treated with inhibitor [Compound 34 (1 μM); or Compound 26 (1 or 0.1 μM); 4 h) and DMSO, respectively, followed by ABPP-SILAC analysis with either the FP-biotin probe or the Compound 39 probe. […] Conversely, Compound 34 inhibited >90% of ABHD4 activity, as measured with either the FP-biotin probe or the Compound 39 probe, and cross-reacted with four additional targets—ABHD6, PAFAH2, PLA2G7, and PLA2G15.

The target in test [3] is T2, endogenous PPT1 (Homo sapiens, UniProt P50897).
T2 construct: endogenous in cells; host or cells: PC3
T2 sequence (P50897 28-306): T1 sequence (P50897 28-306)
Kind of test: PPT1 substrate assay, PC3 cells treated in situ. It counts as cell-based. The note with it: 4 h in situ; for reduction in 4-MUBO hydrolysis activity versus DMSO: 500 nM inhibitor. Here is the method:
PPT1 activity was assessed in vitro using a substrate assay adapted from previous studies (van Diggelen et al., Molecular genetics and metabolism 66, 240-244, 1999). Lysates from HEK293T cells transfected with an empty vector, or human PPT1 under a CMV promoter were adjusted to 1 mg/ml in PBS (25 μl), and then combined 1:1 with Mcllvain's phosphate/citrate buffer containing 0.375% (v/v) Triton-X 100 and 15 mM DTT (pH 5.0). This sample was pre-treated with inhibitor or DMSO for 30 minutes at 37° C., and 10 μl (5 μg protein) was used in the substrate assay as follows: Samples were diluted in a black 96-well plate (half-area) with 20 μl McIlvain's phosphate/citrate buffer (pH 5.0) containing 0.375% TX-100 and 15 mM DTT, as well as 0.64 mM MU-6S-Palm-PD-Glc and 0.1 U sweet almond glucosidase (Sigma). The reactions were incubated at 37° C. for 1 hour, quenched with 120 μl sodium bicarbonate buffer (pH 10.0), and hydrolysis by 4-MU fluorescence measured by excitement at […] and emission intensity at […]. 16 μg protein was used for analysis of native PC3 cells.
as §1
Compound 26 was then tested to see if it inhibited PPT1 activity using a substrate assay. […] In this assay, PPT1 hydrolyzes the substrate's palmitoyl thioester bond, and exogenous sweet almond β-glucosidase deglycosylates and frees the fluorophore, 4-methylumbelliferone (4-MU), which is measured to assess PPT1 activity.

For orientation: inhibition means the change of the read-out against control, counted positive when it falls. A higher inhibition goes with a response far below the control.

Turning to `O=C(ON1C(=O)C2CN(C(=O)N3CCOCC3)CCN2C1=O)N1CCC(CCc2ccc(Cl)cc2)CC1` (stereo not shown) [Compound 1, 7-(morpholine-4-carbonyl)-1,3-dioxohexahydroimidazo[1,5-a]pyrazin-2(3H)-yl 4-(4-chloro-phenethyl)piperidine-1-carboxylate], the “blockade of LYPLA1 and LYPLA2 in vivo” value in test [1] (5 mg/kg i.p., 4 h, FP-Rh probe) is “near-complete blockade of LYPLA1 and LYPLA2 in peripheral (e.g., liver, kidney), but not central (brain) tissues”. The “mLYPLA1/2 (in vivo), % @ 5 mg/kg (liver and kidney)” value in test [1] (5 mg/kg, liver and kidney, mouse) was determined as 100% @. In addition, the “inhibition of LYPLA1/2 in liver and kidney” value in test [1] (0.5-50 mg/kg i.p., 4 h, liver and kidney) is recorded as about 90%. Also, the “inhibition of LYPLA1/2 in the brain” value in test [1] (highest dose 50 mg/kg i.p., 4 h, brain) is about 75%.

Consider `COc1ccc(N2CCN(C(=O)ON3C(=O)C4CN(CC5CCN(Cc6ccccc6)CC5)CCN4C3=O)CC2)cc1` (stereo not shown) [Compound 26, 7-((1-benzylpiperidin-4-yl)methyl)-1,3-dioxohexahydroimidazo[1,5-a]pyrazin-2(3H)-yl 4-(4-methoxyphenyl)piperazine-1-carboxylate], for which the “inhibition of PPT1 in PC3 cells” value in test [2] (1 or 0.1 μM, Compound 39 probe) was about 90%. In addition, the “mLYPLA1/2 (in vivo), % @ 40 mg/kg (testis)” value in test [1] (40 mg/kg, testis, mouse) is recorded as 0% @. The “reduction in 4-MUBO hydrolysis activity versus DMSO” value in test [3] is recorded as “substantial reductions”. Moreover, the “reduction in endogenous PPT1 activity” value in test [3] (500 nM, MU-6S-Palm-βD-Glc substrate assay) was 90%.

Consider `O=C(ON1C(=O)C2CN(Cc3ccc(Oc4ccccc4)cc3)CCN2C1=O)N1CCOCC1` (stereo not shown) [Compound 34, 1,3-dioxo-7-(4-phenoxybenzyl)hexahydroimidazo[1,5-a]pyrazin-2(3H)-yl morpholine-4-carboxylate], for which the “reduction in 4-MUBO hydrolysis activity versus DMSO” value in test [3] is on record as “not”.

Consider `COc1ccc(N2CCN(C(=O)ON3C(=O)C4CN(Cc5ccc(Oc6ccccc6)cc5)CCN4C3=O)CC2)cc1` (stereo not shown) [Compound 37, 1,3-dioxo-7-(4-phenoxybenzyl)hexahydroimidazo[1,5-a]pyrazin-2(3H)-yl 4-(4-methoxyphenyl)piperazine-1-carboxylate], for which the inhibition at 1 µM in test [2] (PC-3, 1 μM, Compound 39 probe (5 μM, 1 h)) was over 90%.
